The compounds below were run against T1, human kinase Mps-1 (Homo sapiens, UniProt P33981) (assay: Mps-1 kinase assay (HTRF)). Conditions: lowATP; mean; read-out: Mps1 lowATP mean IC50.
T1 construct: N-terminally GST-tagged human full length recombinant Mps-1 kinase; purchased Invitrogen, Karslruhe, Germany PV4071
T1 sequence (P33981 1-857): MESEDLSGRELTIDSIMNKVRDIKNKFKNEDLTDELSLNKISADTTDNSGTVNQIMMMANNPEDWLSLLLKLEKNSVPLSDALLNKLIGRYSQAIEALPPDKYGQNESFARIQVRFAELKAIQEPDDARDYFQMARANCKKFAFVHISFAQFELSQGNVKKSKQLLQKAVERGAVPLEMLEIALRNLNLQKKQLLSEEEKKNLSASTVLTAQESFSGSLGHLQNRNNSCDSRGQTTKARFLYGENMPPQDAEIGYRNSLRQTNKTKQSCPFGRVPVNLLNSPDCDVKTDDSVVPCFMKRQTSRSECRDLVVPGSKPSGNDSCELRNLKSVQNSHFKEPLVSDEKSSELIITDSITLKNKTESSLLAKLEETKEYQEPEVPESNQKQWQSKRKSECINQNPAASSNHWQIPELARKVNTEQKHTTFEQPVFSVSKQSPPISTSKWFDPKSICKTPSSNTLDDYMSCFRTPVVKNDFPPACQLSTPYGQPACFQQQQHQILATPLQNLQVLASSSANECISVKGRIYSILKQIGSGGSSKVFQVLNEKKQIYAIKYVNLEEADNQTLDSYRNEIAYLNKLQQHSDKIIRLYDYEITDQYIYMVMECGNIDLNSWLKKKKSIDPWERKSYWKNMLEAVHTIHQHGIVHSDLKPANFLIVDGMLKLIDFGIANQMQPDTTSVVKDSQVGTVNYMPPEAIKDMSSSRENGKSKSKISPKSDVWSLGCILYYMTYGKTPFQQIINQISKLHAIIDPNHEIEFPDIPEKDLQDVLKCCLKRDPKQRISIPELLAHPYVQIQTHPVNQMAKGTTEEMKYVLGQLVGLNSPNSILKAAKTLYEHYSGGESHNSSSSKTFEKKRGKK
Assay type: biochemical
In short: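 HTRF readout: EDTA-stopped reactions incubated 1 h with europium anti-phospho(Ser/Thr) antibody and streptavidin-XLent, emission ratio 665/620 nm after 350 nm excitation. Kinase step: compound pre-bound 15 min to ~1 nM GST-Mps-1, then 60 min at 22 °C with ATP and biotin-peptide substrate; inhibition scaled between no-inhibitor (0%) and no-enzyme (100%) controls.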

IC50 [nM]	Structure (SMILES)
13.8	CC(C)CNc1nc2ccccc2n2c(-c3ccc(C(=O)NC4CC4C)cc3)cnc12 (stereo not shown) [Example 3-29, N-(2-methylcyclopropyl)-4-{4-[(2-methylpropyl)amino]imidazo[1,2-a]quinoxalin-1-yl}benzamide]
275	CC(C)CNc1nc2ccccc2n2c(-c3ccc(C(=O)NC4(CO)CC4)cc3)cnc12 [Example 3-30, N-[1-(hydroxymethyl)cyclopropyl]-4-{4-[(2-methylpropyl)amino]imidazo[1,2-a]quinoxalin-1-yl}benzamide]
4570	CC(C)CNc1nc2ccccc2n2c(-c3ccc(C(=O)Nc4ccc(CN5CCN(C)CC5)c(C(F)(F)F)c4)cc3)cnc12 [Example 3-31, N-{4-[(4-methylpiperazin-1-yl)methyl]-3-(trifluoromethyl)phenyl}-4-{4-[(2-methylpropyl)amino]imidazo[1,2-a]quinoxalin-1-yl}benzamide]
158	CC(C)CNc1nc2ccccc2n2c(-c3ccc(C(=O)NC4(C)CC4)cc3)cnc12 [Example 3-32, N-(1-methylcyclopropyl)-4-{4-[(2-methylpropyl)amino]imidazo[1,2-a]quinoxalin-1-yl}benzamide]

— patent US8729082B2, “Substituted imidazoquinoxalines” (Bayer Intellectual Property GmbH, priority 2009, dated 2014)
